Data taken from the supplement of paper PMC10307832.

Assays:
Assay in all cases: relative viability (nuclei count vs DMSO), 5 days (fraction); higher = more cells survive
TPCA-1 + Vorinostat = compound: C1=CC(=CC=C1C2=CC(=C(S2)NC(=O)N)C(=O)N)F [TPCA-1] + O=C(CCCCCCC(=O)Nc1ccccc1)NO [Vorinostat] (partner 1 µM)
Summary of the method: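 Dosing by pin tool came one day after lung cancer cell lines were seeded in 1536-well plates, using either one drug or a fixed anchor-drug dose plus five library-drug doses (not always all listed) in √10 steps. After 5 days, nuclei were counted on 4× images. Relative viability is treated-well nuclei count divided by vehicle-well nuclei count, and values are medians of duplicate plates.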

[1] = compound: C1/C(=C\C2=CC=CS2)/C(=O)/C(=C/C3=CC=CS3)/C1
Summary of the method: (§1)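 Viability was defined as treated-well nuclei divided by vehicle-well nuclei, with the median taken over replicate plates. Cells from lung cancer lines sat overnight at 37 °C in 1536-well plates, received five √10-spaced library-drug doses by pinning on vehicle-anchored plates, and grew 5 days without medium change before one-step fixation, permeabilisation and Hoechst staining, 4× imaging and MetaXpress nuclear counts. Only plates with control CV under 25% and at least one doubling were kept.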

Lestaurtinib = compound: C[C@]12O[C@H](C[C@]1(O)CO)n1c3ccccc3c3c4c(c5c6ccccc6n2c5c31)CNC4=O [Lestaurtinib]
Summary of the method: as §1

TPCA-1 = compound: C1=CC(=CC=C1C2=CC(=C(S2)NC(=O)N)C(=O)N)F [TPCA-1]
Summary of the method: as §1

UMC-11
relative viability (TPCA-1 + Vorinostat; first compound 0.04 µM): 0.447
relative viability (TPCA-1 + Vorinostat; first compound 0.1265 µM): 0.358
relative viability (TPCA-1 + Vorinostat; first compound 0.4 µM): 0.368
relative viability (TPCA-1 + Vorinostat; first compound 1.265 µM): 0.378
relative viability (TPCA-1 + Vorinostat; first compound 4 µM): 0.214
relative viability ([1]; 0.2 µM): 0.975
relative viability ([1]; 0.6325 µM): 0.993
relative viability ([1]; 2 µM): 0.954
relative viability ([1]; 6.325 µM): 0.711
relative viability ([1]; 20 µM): 0.941
relative viability (Lestaurtinib; 0.005 µM): 1.01
relative viability (Lestaurtinib; 0.01581 µM): 0.958
relative viability (Lestaurtinib; 0.05 µM): 0.615
relative viability (Lestaurtinib; 0.1581 µM): 0.353
relative viability (Lestaurtinib; 0.5 µM): 0.19
relative viability (TPCA-1; 0.04 µM): 1.03
relative viability (TPCA-1; 0.1265 µM): 0.87
relative viability (TPCA-1; 0.4 µM): 1.03
relative viability (TPCA-1; 1.265 µM): 0.976
relative viability (TPCA-1; 4 µM): 0.374
